Measured values: PMC3510438, “The transmembrane tyrosines Y56, Y91 and Y167 play important roles in determining the affinity and transport rate of the rabbit proton-coupled peptide transporter PepT1” (The International Journal of Biochemistry & Cell Biology, 2009)
Changes are numbered by the printed parent chain. Where a SMILES comes first, the peptide text is derived from it.

Tests used:
Y12F-rPepT1 = target: T1, Y12F-rPepT1 (Oryctolagus cuniculus, UniProt P36836, Y12F); assay: Competition of [3H]-D-Phe-L-Gln uptake into Xenopus oocytes, Ki; type: cell-based, rabbit; conditions: against 0.4 μM [3H]-D-Phe-L-Gln uptake
T1 construct: expressed in transfected cells; host or cells: Xenopus laevis oocytes injected with cRNA
T1 sequence (P36836 1-707 Y12F): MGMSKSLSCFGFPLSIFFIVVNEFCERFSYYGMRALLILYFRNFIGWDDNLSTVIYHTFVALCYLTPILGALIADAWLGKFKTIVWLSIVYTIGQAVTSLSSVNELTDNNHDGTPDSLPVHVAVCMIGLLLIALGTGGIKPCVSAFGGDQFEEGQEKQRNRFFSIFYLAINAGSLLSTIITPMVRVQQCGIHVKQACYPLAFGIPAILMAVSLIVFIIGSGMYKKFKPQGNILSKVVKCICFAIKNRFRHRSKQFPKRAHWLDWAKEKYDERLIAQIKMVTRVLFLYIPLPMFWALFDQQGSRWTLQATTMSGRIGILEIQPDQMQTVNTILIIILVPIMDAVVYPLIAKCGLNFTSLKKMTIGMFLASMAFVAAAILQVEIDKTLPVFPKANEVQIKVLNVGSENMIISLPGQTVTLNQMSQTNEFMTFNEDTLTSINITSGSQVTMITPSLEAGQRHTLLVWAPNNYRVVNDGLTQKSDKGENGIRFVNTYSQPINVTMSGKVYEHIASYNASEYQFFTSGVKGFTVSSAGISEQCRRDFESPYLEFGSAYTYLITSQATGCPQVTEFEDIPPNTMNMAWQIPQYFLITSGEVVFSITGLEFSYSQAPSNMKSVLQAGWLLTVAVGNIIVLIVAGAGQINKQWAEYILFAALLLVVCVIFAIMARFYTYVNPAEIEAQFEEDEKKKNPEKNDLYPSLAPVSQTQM
Protocol: (§1) rPepT1 constructs were linearised with XbaI (New England Biolabs, UK) and cRNA generated by in vitro transcription (T7 mMessage mMachine, Ambion, Cambridgeshire, UK). Xenopus laevis oocytes were obtained under MS222 anaesthesia (0.2%, w/v) in accordance with the UK Animals (Scientific Procedures) Act, 1986, and maintained at 18 °C in modified Barth's medium (88 mM NaCl, 1 mM KCl, 0.82 mM MgSO4, 2.4 mM NaHCO3, 0.42 mM CaCl2, 10 mM Hepes, 5 mM sodium pyruvate, 50 μg ml^−1 gentamicin (Fluka, Poole, UK), adjusted to pH 7.6 with 1 M NaOH). Transport measurements were performed at least 72 h after micro-injection of oocytes with 27nl cRNA (1 μg/μl), with medium changed daily.
(§2) Uptake of [^3H]-D-Phe-L-Gln (17.4 Ci/mmole, custom synthesised, Cambridge Research Biochemicals, Stockton-on-Tees, UK) was performed as previously described ([Meredith, 2004]). Briefly, 5 oocytes were incubated in 100 μl of uptake medium (95 mM NaCl, 2 mM KCl, 1 mM CaCl2, 0.42 mM MgCl2, 10 mM Tris/Hepes pH 7.4 or Tris/Mes pH 5.5) with tracer (0.4 μM) [^3H]-D-Phe-L-Gln. After incubation, the oocytes were washed sequentially five times in 1 ml of ice-cold 120 mM NaCl solution, lysed individually with 100 μl 2% (w/v) SDS and liquid scintillation counted. As a control non-injected oocytes were also incubated in uptake medium with D-Phe-L-Gln as above.
(§3) The affinity of wild-type and mutant rPepT1 transporters were assessed by competition studies with 0.4 μM [^3H]-D-Phe-L-Gln and Gly-L-Gln present in the uptake medium in concentrations from 0 to 2 mM using the protocol above, and the Ki calculated using the method of [Deves and Boyd (1989)].

Y91F-rPepT1 = target: T2, Y91F-rPepT1 (Oryctolagus cuniculus, UniProt P36836, Y91F); assay: as above; type: cell-based, rabbit; conditions: against 0.4 μM [3H]-D-Phe-L-Gln uptake
T2 construct: expressed in transfected cells; host or cells: Xenopus laevis oocytes injected with cRNA
T2 sequence (P36836 1-707 Y91F): T1 sequence (P36836 1-707 Y12F) with F12Y, Y91F
Protocol: as §1, §2, §3

NCC(=O)N[C@@H](CCC(N)=O)C(=O)O [Gly-L-Gln] (H-Gly-Gln-OH)
Ki (Y12F-rPepT1; pHout 5.5): 220 ± 20 µM | Ki (Y12F-rPepT1; pHout 7.4): 90 ± 20 µM | Ki (Y91F-rPepT1; pHout 5.5): 1400 ± 310 µM | Ki (Y91F-rPepT1; pHout 7.4): 460 ± 90 µM
